Measurements as given in publication PMC5218480 (PLoS ONE, 2017).

Test system: MV-4-11 cells
Assay: Gene expression microarray analysis (Affymetrix PrimeView) and GSEA
Type: cell-based, human
Design: RFU PODN (11730768_x_at) / Fold change /veh PODN (11730768_x_at) / RFU LINC00158 (11744669_a_at) / Fold change /veh LINC00158 (11744669_a_at) / RFU DUSP10 (11751237_a_at) / Fold change /veh DUSP10 (11751237_a_at) / RFU ID3 (11757404_x_at) / Fold change /veh ID3 (11757404_x_at) / RFU PLEKHG5 (11737974_s_at) / Fold change /veh PLEKHG5 (11737974_s_at) / RFU LRRC4B (11730491_at) / Fold change /veh LRRC4B (11730491_at) / RFU GIMAP4 (11747438_a_at) / Fold change /veh GIMAP4 (11747438_a_at) / RFU KRT8 (11758183_x_at) / Fold change /veh KRT8 (11758183_x_at) / RFU CNN1 (11734310_a_at) / Fold change /veh CNN1 (11734310_a_at) / RFU VPS37D (11726825_at) / Fold change /veh VPS37D (11726825_at) / RFU C10orf10 (11716522_x_at) / Fold change /veh C10orf10 (11716522_x_at) / RFU KIR2DL2 /// KIR2DL4 /// KIR2DL5A /// KIR2DL5B /// KIR2DS1 /// KIR2DS2 /// KIR2DS3 /// KIR2DS4 /// KIR3DL3 /// KIR3DL3 /// KIR3DS1 (11738374_at) / Fold change /veh KIR2DL2 /// KIR2DL4 /// KIR2DL5A /// KIR2DL5B /// KIR2DS1 /// KIR2DS2 /// KIR2DS3 /// KIR2DS4 /// KIR3DL3 /// KIR3DL3 /// KIR3DS1 (11738374_at) / RFU C1QL1 (11718748_at) / Fold change /veh C1QL1 (11718748_at) / RFU TMPRSS4 (11747572_a_at) / Fold change /veh TMPRSS4 (11747572_a_at) / RFU HAMP (11756126_x_at) / Fold change /veh HAMP (11756126_x_at) / RFU RNFT2 (11725882_a_at) / Fold change /veh RNFT2 (11725882_a_at) / RFU NR4A2 (11747474_a_at) / Fold change /veh NR4A2 (11747474_a_at) / RFU ABCC12 (11746883_a_at) / Fold change /veh ABCC12 (11746883_a_at) / RFU TMEM136 (11760407_x_at) / Fold change /veh TMEM136 (11760407_x_at) / RFU CLDN22 /// WWC2 (11732394_at) / Fold change /veh CLDN22 /// WWC2 (11732394_at) / RFU HLA-DPB1 (11760878_x_at) / Fold change /veh HLA-DPB1 (11760878_x_at) / RFU SPINT1 (11716480_a_at) / Fold change /veh SPINT1 (11716480_a_at) / RFU GAP43 (11754022_s_at) / Fold change /veh GAP43 (11754022_s_at) / RFU A4GNT (11735810_at) / Fold change /veh A4GNT (11735810_at) / RFU PRB3 (11715151_x_at) / Fold change /veh PRB3 (11715151_x_at) / RFU TUBB4B (11761932_at) / Fold change /veh TUBB4B (11761932_at) / RFU CAPN14 (11732068_a_at) / Fold change /veh CAPN14 (11732068_a_at) / RFU TMCC2 (11721928_a_at) / Fold change /veh TMCC2 (11721928_a_at) / RFU IRGQ (11745062_a_at) / Fold change /veh IRGQ (11745062_a_at) / RFU FAM174B (11720279_a_at) / Fold change /veh FAM174B (11720279_a_at) / RFU TMPRSS4 (11748680_a_at) / Fold change /veh TMPRSS4 (11748680_a_at) / RFU FAM212B (11763350_a_at) / Fold change /veh FAM212B (11763350_a_at) / RFU PLEKHG5 (11743358_a_at) / Fold change /veh PLEKHG5 (11743358_a_at) / RFU ZSCAN30 (11745921_a_at) / Fold change /veh ZSCAN30 (11745921_a_at) / RFU CMKLR1 (11741424_a_at) / Fold change /veh CMKLR1 (11741424_a_at) / RFU LOC101060620 /// MAPK8IP1 (11723275_at) / Fold change /veh LOC101060620 /// MAPK8IP1 (11723275_at) / RFU SPTSSB (11747773_x_at) / Fold change /veh SPTSSB (11747773_x_at) / RFU PRSS12 (11739890_at) / Fold change /veh PRSS12 (11739890_at) / RFU BIN1 (11741810_x_at) / Fold change /veh BIN1 (11741810_x_at) / RFU WNT11 (11732464_a_at) / Fold change /veh WNT11 (11732464_a_at) / RFU C10orf10 (11716521_a_at) / Fold change /veh C10orf10 (11716521_a_at) / RFU C5orf56 (11738089_at) / Fold change /veh C5orf56 (11738089_at) / RFU CYB561 (11721691_x_at) / Fold change /veh CYB561 (11721691_x_at) / RFU ANKRD19P (11752326_a_at) / Fold change /veh ANKRD19P (11752326_a_at) / RFU OR2T12 /// OR2T33 /// OR2T8 (11738714_s_at) / Fold change /veh OR2T12 /// OR2T33 /// OR2T8 (11738714_s_at) / RFU VCAN (11748164_a_at) / Fold change /veh VCAN (11748164_a_at) / RFU JSRP1 (11732532_at) / Fold change /veh JSRP1 (11732532_at) / RFU KRTAP10-11 (11738290_x_at) / Fold change /veh KRTAP10-11 (11738290_x_at) / RFU MYO3A (11730013_a_at) / Fold change /veh MYO3A (11730013_a_at) / RFU EBF3 (11725865_a_at) / Fold change /veh EBF3 (11725865_a_at) / RFU CAMK2N1 (11719241_x_at) / Fold change /veh CAMK2N1 (11719241_x_at) / RFU C5orf56 (11738088_a_at) / Fold change /veh C5orf56 (11738088_a_at) / RFU OLFML3 (11715873_a_at) / Fold change /veh OLFML3 (11715873_a_at) / RFU LOC100653217 /// NTM (11731650_a_at) / Fold change /veh LOC100653217 /// NTM (11731650_a_at) / RFU MAPK11 (11762145_a_at) / Fold change /veh MAPK11 (11762145_a_at) / RFU FIZ1 (11724087_x_at) / Fold change /veh FIZ1 (11724087_x_at) / RFU OASL (11726364_x_at) / Fold change /veh OASL (11726364_x_at) / RFU SOX15 (11748057_x_at) / Fold change /veh SOX15 (11748057_x_at) / RFU CD79A (11719716_a_at) / Fold change /veh CD79A (11719716_a_at) / RFU HIST1H1D (11736915_at) / Fold change /veh HIST1H1D (11736915_at) / RFU CASKIN2 (11723855_a_at) / Fold change /veh CASKIN2 (11723855_a_at) / RFU LOC730098 (11760151_x_at) / Fold change /veh LOC730098 (11760151_x_at) / RFU OR4N2 (11742367_at) / Fold change /veh OR4N2 (11742367_at) / RFU PRRT2 (11749266_a_at) / Fold change /veh PRRT2 (11749266_a_at) / RFU SNX32 (11753110_a_at) / Fold change /veh SNX32 (11753110_a_at) / RFU CDHR5 (11726645_a_at) / Fold change /veh CDHR5 (11726645_a_at) / RFU RCAN1 (11760418_a_at) / Fold change /veh RCAN1 (11760418_a_at) / RFU FAM167A (11723789_a_at) / Fold change /veh FAM167A (11723789_a_at) / RFU FAM26E (11764081_at) / Fold change /veh FAM26E (11764081_at) / RFU ISYNA1 (11749810_s_at) / Fold change /veh ISYNA1 (11749810_s_at) / RFU ACY1 (11761880_at) / Fold change /veh ACY1 (11761880_at) / RFU 11764098_at / Fold change /veh 11764098_at / RFU SAMD14 (11745864_x_at) / Fold change /veh SAMD14 (11745864_x_at) / RFU NPB (11741838_a_at) / Fold change /veh NPB (11741838_a_at) / RFU TMPRSS6 (11731388_a_at) / Fold change /veh TMPRSS6 (11731388_a_at) / RFU KRTAP10-2 (11738614_at) / Fold change /veh KRTAP10-2 (11738614_at) / RFU ARHGAP8 /// PRR5-ARHGAP8 (11727945_x_at) / Fold change /veh ARHGAP8 /// PRR5-ARHGAP8 (11727945_x_at) / RFU KRTAP5-7 /// NADSYN1 (11734609_at) / Fold change /veh KRTAP5-7 /// NADSYN1 (11734609_at) / RFU RASL12 (11751679_a_at) / Fold change /veh RASL12 (11751679_a_at) / RFU CDKN2B (11736163_a_at) / Fold change /veh CDKN2B (11736163_a_at) / RFU PRF1 (11729649_at) / Fold change /veh PRF1 (11729649_at) / RFU, ZNF638 /// ZNF638-IT1 / Fold change vs veh, ZNF638 /// ZNF638-IT1 / RFU, PANK3 / Fold change vs veh, PANK3 / RFU, SH3YL1 / Fold change vs veh, SH3YL1 / RFU, ZEB2 / Fold change vs veh, ZEB2 / RFU, NRIP1 / Fold change vs veh, NRIP1 / RFU, PTTG1IP / Fold change vs veh, PTTG1IP / RFU, CAPN2 / Fold change vs veh, CAPN2 / RFU, MED14 / Fold change vs veh, MED14 / RFU, SNORA58 / Fold change vs veh, SNORA58 / RFU, C1orf63 / Fold change vs veh, C1orf63 / RFU, LRRFIP1 / Fold change vs veh, LRRFIP1 / RFU, NDUFAF7 / Fold change vs veh, NDUFAF7 / RFU, SLC12A2 / Fold change vs veh, SLC12A2 / RFU, IBTK / Fold change vs veh, IBTK / RFU, ESF1 / Fold change vs veh, ESF1 / Fold change vs veh, TMEM50B / RFU, TAOK1 / Fold change vs veh, TAOK1 / RFU, ACBD3 / Fold change vs veh, ACBD3 / RFU, TMA16 / Fold change vs veh, TMA16 / RFU, RWDD3 / Fold change vs veh, RWDD3 / RFU, BCAT1 / Fold change vs veh, BCAT1 / RFU, EDEM3 / Fold change vs veh, EDEM3 / RFU, TMEM33 / Fold change vs veh, TMEM33 / RFU, WDR75 / Fold change vs veh, WDR75 / RFU, AHCTF1 / Fold change vs veh, AHCTF1 / RFU, TFRC / Fold change vs veh, TFRC / RFU, ZDHHC17 / Fold change vs veh, ZDHHC17 / RFU, NOM1 / Fold change vs veh, NOM1 / RFU, ARL8B / Fold change vs veh, ARL8B / RFU, ZBTB11 / Fold change vs veh, ZBTB11 / RFU, TAMM41 / Fold change vs veh, TAMM41 / RFU, KIAA1704 /// LOC100996395 / Fold change vs veh, KIAA1704 /// LOC100996395 / RFU, ING1 / Fold change vs veh, ING1 / RFU, TRMT61B / Fold change vs veh, TRMT61B / RFU, FUBP3 / Fold change vs veh, FUBP3 / RFU, TP53 / Fold change vs veh, TP53 / RFU, TNKS2 / Fold change vs veh, TNKS2 / RFU, ZFP14 / Fold change vs veh, ZFP14 / RFU, ACTR2 / Fold change vs veh, ACTR2 / RFU, PPP3R1 / Fold change vs veh, PPP3R1 / RFU, PIK3R1 / Fold change vs veh, PIK3R1 / RFU, HNRNPA1 / Fold change vs veh, HNRNPA1 / RFU, RNF170 / Fold change vs veh, RNF170 / RFU, ZNF28 / Fold change vs veh, ZNF28 / RFU, RNGTT / Fold change vs veh, RNGTT / RFU, OGT / Fold change vs veh, OGT / RFU, BRD1 / Fold change vs veh, BRD1 / RFU, MARS / Fold change vs veh, MARS / RFU, ZNF655 / Fold change vs veh, ZNF655 / RFU, FAHD1 / Fold change vs veh, FAHD1 / RFU, BDP1 / Fold change vs veh, BDP1 / RFU, LRRCC1 / Fold change vs veh, LRRCC1 / RFU, ARID1A / Fold change vs veh, ARID1A / RFU, ZNF146 / Fold change vs veh, ZNF146 / RFU, ZNF330 / Fold change vs veh, ZNF330 / RFU, GPN3 / Fold change vs veh, GPN3 / RFU, C9orf123 / Fold change vs veh, C9orf123 / RFU, N4BP2L2 / Fold change vs veh, N4BP2L2 / RFU, ARFIP1 / Fold change vs veh, ARFIP1 / RFU, FAM179B / Fold change vs veh, FAM179B / RFU, BCL10 / Fold change vs veh, BCL10 / RFU, UHRF1BP1L / Fold change vs veh, UHRF1BP1L / RFU, BET1 / Fold change vs veh, BET1 / RFU, CNOT2 / Fold change vs veh, CNOT2 / RFU, ZNF268 / Fold change vs veh, ZNF268 / Fold change vs veh, ZNF507 / RFU, DGCR2 / Fold change vs veh, DGCR2 / RFU, WDSUB1 / Fold change vs veh, WDSUB1 / Fold change vs veh, HSP90B1 /// MIR3652 / RFU, ADSS / Fold change vs veh, ADSS / RFU, GK / Fold change vs veh, GK / RFU, ZNF148 / Fold change vs veh, ZNF148 / RFU, TAF9 / Fold change vs veh, TAF9 / RFU, SLC1A5 / Fold change vs veh, SLC1A5 / RFU, SLMO2 / Fold change vs veh, SLMO2 / RFU, ABCC4 / Fold change vs veh, ABCC4 / RFU, LOC101060439 /// RAP1B / Fold change vs veh, LOC101060439 /// RAP1B / RFU, RFX7 / Fold change vs veh, RFX7 / RFU, GTPBP10 / Fold change vs veh, GTPBP10 / RFU, CNEP1R1 / Fold change vs veh, CNEP1R1 / RFU, BIVM-ERCC5 /// ERCC5 / Fold change vs veh, BIVM-ERCC5 /// ERCC5 / RFU, ILF3 / Fold change vs veh, ILF3 / RFU 11762660_at / Fold change /veh 11762660_at / RFU VCAN (11757783_s_at) / Fold change /veh VCAN (11757783_s_at) / RFU DDX43 (11728927_at) / Fold change /veh DDX43 (11728927_at) / RFU KRT8 (11758188_x_at) / Fold change /veh KRT8 (11758188_x_at) / RFU NKD1 (11759106_at) / Fold change /veh NKD1 (11759106_at) / RFU SRD5A1 (11742802_a_at) / Fold change /veh SRD5A1 (11742802_a_at) / RFU TPSAB1 /// TPSB2 (11721975_s_at) / Fold change /veh TPSAB1 /// TPSB2 (11721975_s_at) / RFU GSTM3 (11746129_a_at) / Fold change /veh GSTM3 (11746129_a_at) / RFU IL23R (11737362_x_at) / Fold change /veh IL23R (11737362_x_at) / RFU TMEM51 (11727254_a_at) / Fold change /veh TMEM51 (11727254_a_at) / RFU PIWIL2 (11732686_x_at) / Fold change /veh PIWIL2 (11732686_x_at) / RFU ORM1 (11744905_x_at) / Fold change /veh ORM1 (11744905_x_at) / RFU CCDC152 (11743942_at) / Fold change /veh CCDC152 (11743942_at) / RFU ECM1 (11717891_a_at) / Fold change /veh ECM1 (11717891_a_at) / RFU IL23R (11748794_a_at) / Fold change /veh IL23R (11748794_a_at) / RFU TNFAIP8L3 (11732012_x_at) / Fold change /veh TNFAIP8L3 (11732012_x_at) / RFU MBOAT4 (11741988_at) / Fold change /veh MBOAT4 (11741988_at) / RFU 11764193_at / Fold change /veh 11764193_at / RFU TMEM53 (11763286_at) / Fold change /veh TMEM53 (11763286_at) / RFU MAGEB2 (11727129_at) / Fold change /veh MAGEB2 (11727129_at) / RFU TMEM200A (11744735_a_at) / Fold change /veh TMEM200A (11744735_a_at) / RFU CCDC152 (11751479_a_at) / Fold change /veh CCDC152 (11751479_a_at) / RFU FAM211A (11726209_a_at) / Fold change /veh FAM211A (11726209_a_at) / RFU RGS16 (11746705_a_at) / Fold change /veh RGS16 (11746705_a_at) / RFU VCAN (11755009_s_at) / Fold change /veh VCAN (11755009_s_at) / RFU RHOB (11743442_s_at) / Fold change /veh RHOB (11743442_s_at) / RFU RGS16 (11720943_a_at) / Fold change /veh RGS16 (11720943_a_at) / RFU RGS16 (11720944_at) / Fold change /veh RGS16 (11720944_at) / RFU, VPS4B / Fold change vs veh, VPS4B / RFU, CREB1 / Fold change vs veh, CREB1 / RFU, DNAJC13 / Fold change vs veh, DNAJC13 / RFU, GNAQ / Fold change vs veh, GNAQ / RFU, CDK5R1 / Fold change vs veh, CDK5R1 / RFU, ZRANB3 / Fold change vs veh, ZRANB3 / RFU, CUL4A / Fold change vs veh, CUL4A / RFU, CCNY / Fold change vs veh, CCNY / RFU, UFL1 / Fold change vs veh, UFL1 / RFU, COG3 / Fold change vs veh, COG3 / RFU, DIAPH2 / Fold change vs veh, DIAPH2 / RFU, SKA2 / Fold change vs veh, SKA2 / RFU, AFF3 / Fold change vs veh, AFF3 / RFU, LMF1 / Fold change vs veh, LMF1 / RFU, IPO11 / Fold change vs veh, IPO11 / RFU, DFFB / Fold change vs veh, DFFB / RFU, FOXP1 / Fold change vs veh, FOXP1 / RFU, CARD8 / Fold change vs veh, CARD8 / RFU, STRN3 / Fold change vs veh, STRN3 / RFU, ADK / Fold change vs veh, ADK / RFU, RASSF2 / Fold change vs veh, RASSF2 / RFU, WIPF1 / Fold change vs veh, WIPF1 / RFU, LARP1B / Fold change vs veh, LARP1B / RFU, RASA1 / Fold change vs veh, RASA1 / RFU, RB1 / Fold change vs veh, RB1 / RFU, PPFIA1 / Fold change vs veh, PPFIA1 / RFU, MAT2A / Fold change vs veh, MAT2A / RFU, CCT5 / Fold change vs veh, CCT5 / RFU, WDR92 / Fold change vs veh, WDR92 / RFU, CUX1 / Fold change vs veh, CUX1 / RFU, TTC7A / Fold change vs veh, TTC7A / RFU, TMEM135 / Fold change vs veh, TMEM135 / RFU, DEPTOR / Fold change vs veh, DEPTOR / RFU, CPM / Fold change vs veh, CPM / RFU, DNAJB6 / Fold change vs veh, DNAJB6 / RFU, CACNA2D3 / Fold change vs veh, CACNA2D3 / RFU, DTX4 / Fold change vs veh, DTX4 / RFU, TFCP2 / Fold change vs veh, TFCP2 / RFU, GMCL1 /// GMCL1P1 / Fold change vs veh, GMCL1 /// GMCL1P1 / RFU, AEBP2 / Fold change vs veh, AEBP2 / RFU, SNHG1 /// SNORD22 /// SNORD25 /// SNORD26 /// SNORD27 /// SNORD28 /// SNORD29 /// SNORD31 / Fold change vs veh, SNHG1 /// SNORD22 /// SNORD25 /// SNORD26 /// SNORD27 /// SNORD28 /// SNORD29 /// SNORD31 / Fold change (Aza/veh), C12orf56 (ProbeSet 11735607_a_at) / Fold change (ACY-1035/veh), C12orf56 (ProbeSet 11735607_a_at) / Fold change (Aza/veh), FGFR1OP (ProbeSet 11751329_s_at) / Fold change (ACY-1035/veh), FGFR1OP (ProbeSet 11751329_s_at) / Fold change (Aza/veh), VPS36 (ProbeSet 11739960_a_at) / Fold change (ACY-1035/veh), VPS36 (ProbeSet 11739960_a_at) / RFU SYPL1 (11715823_x_at) / Fold change /veh SYPL1 (11715823_x_at) / RFU IGFBP7 (11715501_s_at) / Fold change /veh IGFBP7 (11715501_s_at) / RFU REEP3 (11722064_at) / Fold change /veh REEP3 (11722064_at) / RFU IGLL1 (11728026_x_at) / Fold change /veh IGLL1 (11728026_x_at): dose or concentration left out as unconfirmed
Conditions: MV-4-11 cells, 48 hours

Nc1ccc(-c2cccs2)cc1NC(=O)c1ccc2c(c1)cc(C1CC1)n2CCN1CCOCC1 [ACY-1035]
RFU SPTSSB (11747773_x_at): 31.07 RFU
